# Measured values published in patent US6355799B1, “Substituted benzene compounds, process for their preparation, and herbicidal and defoliant compositions containing them” (ISK Americas Incorporated, priority 1997, dated 2002).
# Key:
# Format in all cases: in vivo
# [1] = system: redroot pigweed (Amaranthus retroflexus, AMARE); assay: Pre-emerge test, greenhouse herbicide activity screening; conditions: for Pre-emerge Herbicidal Activity AMARE: phytotoxicity rating 0-100 at 14 days after application; for Pre-emerge herbicidal activity, phytotoxicity rating AMARE: rating scale 0-100, 14 days after application
# Procedure, shortened: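 Visual ratings on a 0-100 scale (0 no damage, 100 all plants dead) were taken at 14 days after treatment. Rates of 15-1000 g ai/ha in acetone, 187 l/ha, were sprayed onto soil one day after planting (pre-emerge) or onto 2-3 leaf plants with 0.25% v/v surfactant (post-emerge).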
# [2] = system: barnyardgrass (Echinochloa crus-galli, ECHCG); assay: as above; conditions: for Pre-emerge Herbicidal Activity ECHCG: phytotoxicity rating 0-100 at 14 days after application; for Pre-emerge herbicidal activity, phytotoxicity rating ECHCG: rating scale 0-100, 14 days after application
# Procedure, shortened: (§1)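 Compounds in acetone were track-sprayed at 187 l/ha, 15–1000 g ai/ha, onto sandy loam pots. Pre-emerge seeds were sown one day before spraying, with surface watering afterwards. Post-emerge plants were at the 2–3 leaf stage and sprayed with 0.25% v/v non-ionic surfactant. Injury was rated 0–100 at 14 days.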
# [3] = system: green foxtail (Setaria viridis, SETVI); assay: as above; conditions: for Pre-emerge Herbicidal Activity SETVI: phytotoxicity rating 0-100 at 14 days after application; for Pre-emerge herbicidal activity, phytotoxicity rating SETVI: rating scale 0-100, 14 days after application
# Procedure, shortened: as §1
# [4] = system: ivyleaf morningglory (Ipomoea hederacea, IPOHE); assay: as above; conditions: for Pre-emerge Herbicidal Activity IPOHE: phytotoxicity rating 0-100 at 14 days after application; for Pre-emerge herbicidal activity, phytotoxicity rating IPOHE: rating scale 0-100, 14 days after application
# Procedure, shortened: as §1
# [5] = system: johnsongrass (Sorghum halepense, SORHA); assay: as above; conditions: for Pre-emerge Herbicidal Activity SORHA: phytotoxicity rating 0-100 at 14 days after application; for Pre-emerge herbicidal activity, phytotoxicity rating SORHA: rating scale 0-100, 14 days after application
# Procedure, shortened: as §1
# [6] = system: lambsquarters (Chenopodium album, CHEAL); assay: as above; conditions: for Pre-emerge Herbicidal Activity CHEAL: phytotoxicity rating 0-100 at 14 days after application; for Pre-emerge herbicidal activity, phytotoxicity rating CHEAL: rating scale 0-100, 14 days after application
# Procedure, shortened: as §1
# [7] = system: large crabgrass (Digitaria sanguinalis, DIGSA); assay: as above; conditions: for Pre-emerge Herbicidal Activity DIGSA: phytotoxicity rating 0-100 at 14 days after application; for Pre-emerge herbicidal activity, phytotoxicity rating DIGSA: rating scale 0-100, 14 days after application
# Procedure, shortened: as §1
# [8] = system: sicklepod (Cassia obtusifolia, CASOB); assay: as above; conditions: for Pre-emerge Herbicidal Activity CASOB: phytotoxicity rating 0-100 at 14 days after application; for Pre-emerge herbicidal activity, phytotoxicity rating CASOB: rating scale 0-100, 14 days after application
# Procedure, shortened: as §1
# [9] = system: velvetleaf (Abutilon theophrasti, ABUTH); assay: as above; conditions: for Pre-emerge Herbicidal Activity ABUTH: phytotoxicity rating 0-100 at 14 days after application; for Pre-emerge herbicidal activity, phytotoxicity rating ABUTH: rating scale 0-100, 14 days after application
# Procedure, shortened: as §1
# [10] = system: field corn (Zea mays L., var. Dekalb 535, CORN); assay: Pre-emerge test, crop safety; conditions: for Pre-emerge Herbicidal Activity CORN: crop damage, phytotoxicity rating 0-100 at 14 days after application; for Pre-emerge phytotoxicity rating, crop damage CORN: rating scale 0-100, 14 days after application
# Procedure, shortened: (§2)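 Plants grown in 10 cm pots of sandy loam mix received acetone-dissolved compounds through a moving flat-fan nozzle. Doses ranged from 15 to 1000 g ai/ha. Pre-emerge pots were seeded one day earlier, post-emerge pots 8–21 days earlier. Fourteen days on, each pot was graded 0–100 for damage.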
# [11] = system: upland rice (Oryza sp., var. Tebonnet, RICE); assay: Pre-emerge test, crop safety; conditions: for Pre-emerge Herbicidal Activity RICE: crop damage, phytotoxicity rating 0-100 at 14 days after application; for Pre-emerge phytotoxicity rating, crop damage RICE: rating scale 0-100, 14 days after application
# Procedure, shortened: as §2
# [12] = system: barnyardgrass (Echinochloa crus-galli, ECHCG); assay: Post-emerge test, greenhouse herbicide activity screening; conditions: post-emerge, phytotoxicity rating 0-100 at 14 days after application
# Procedure, shortened: (§3)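 Compounds in acetone were track-sprayed at 15-1000 g ai/ha (187 l/ha) on sandy loam pots: pre-emerge one day after seeding, post-emerge at 2-3 leaf stage with 0.25% v/v non-ionic surfactant. Phytotoxicity was rated 14 days later on a 0 (no damage) to 100 (complete death) scale.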
# [13] = system: green foxtail (Setaria viridis, SETVI); assay: as above; conditions: post-emerge, phytotoxicity rating 0-100 at 14 days after application
# Procedure, shortened: as §3
# [14] = system: ivyleaf morningglory (Ipomoea hederacea, IPOHE); assay: as above; conditions: post-emerge, phytotoxicity rating 0-100 at 14 days after application
# Procedure, shortened: as §3
# [15] = system: johnsongrass (Sorghum halepense, SORHA); assay: as above; conditions: post-emerge, phytotoxicity rating 0-100 at 14 days after application
# Procedure, shortened: as §3
# [16] = system: lambsquarters (Chenopodium album, CHEAL); assay: as above; conditions: post-emerge, phytotoxicity rating 0-100 at 14 days after application
# Procedure, shortened: as §3
# [17] = system: large crabgrass (Digitaria sanguinalis, DIGSA); assay: as above; conditions: post-emerge, phytotoxicity rating 0-100 at 14 days after application
# Procedure, shortened: as §3
# [18] = system: redroot pigweed (Amaranthus retroflexus, AMARE); assay: as above; conditions: post-emerge, phytotoxicity rating 0-100 at 14 days after application
# Procedure, shortened: as §3
# [19] = system: sicklepod (Cassia obtusifolia, CASOB); assay: as above; conditions: post-emerge, phytotoxicity rating 0-100 at 14 days after application
# Procedure, shortened: as §3
# [20] = system: velvetleaf (Abutilon theophrasti, ABUTH); assay: as above; conditions: post-emerge, phytotoxicity rating 0-100 at 14 days after application
# Procedure, shortened: as §3
# [21] = system: field corn (Zea mays L., var. Dekalb 535, CORN); assay: Post-emerge test, crop safety; conditions: post-emerge, crop damage rating 0-100 at 14 days after application
# Procedure, shortened: as §1
# [22] = system: upland rice (Oryza sp., var. Tebonnet, RICE); assay: Post-emerge test, crop safety; conditions: post-emerge, crop damage rating 0-100 at 14 days after application
# Procedure, shortened: as §1
compound,measurement,setting,value
O=C(Nc1cc(Cl)ccc1-n1c(=O)n2n(c1=O)CCCC2)c1ccc2ccccc2c1 [9-19],Pre-emerge Herbicidal Activity AMARE,[1]; rate 63 g ai/ha,100
same,Pre-emerge Herbicidal Activity AMARE,[1]; rate 250 g ai/ha,100
same,Pre-emerge Herbicidal Activity ECHCG,[2]; rate 63 g ai/ha,0
same,Pre-emerge Herbicidal Activity ECHCG,[2]; rate 250 g ai/ha,0
same,Pre-emerge Herbicidal Activity SETVI,[3]; rate 63 g ai/ha,0
same,Pre-emerge Herbicidal Activity SETVI,[3]; rate 250 g ai/ha,60
same,Pre-emerge Herbicidal Activity IPOHE,[4]; rate 63 g ai/ha,30
same,Pre-emerge Herbicidal Activity IPOHE,[4]; rate 250 g ai/ha,0
same,Pre-emerge Herbicidal Activity SORHA,[5]; rate 63 g ai/ha,0
same,Pre-emerge Herbicidal Activity SORHA,[5]; rate 250 g ai/ha,20
same,Pre-emerge Herbicidal Activity CHEAL,[6]; rate 63 g ai/ha,100
same,Pre-emerge Herbicidal Activity CHEAL,[6]; rate 250 g ai/ha,100
same,Pre-emerge Herbicidal Activity DIGSA,[7]; rate 63 g ai/ha,0
same,Pre-emerge Herbicidal Activity DIGSA,[7]; rate 250 g ai/ha,80
same,Pre-emerge Herbicidal Activity CASOB,[8]; rate 63 g ai/ha,0
same,Pre-emerge Herbicidal Activity CASOB,[8]; rate 250 g ai/ha,20
same,Pre-emerge Herbicidal Activity ABUTH,[9]; rate 63 g ai/ha,100
same,Pre-emerge Herbicidal Activity ABUTH,[9]; rate 250 g ai/ha,100
same,Pre-emerge Herbicidal Activity CORN,[10]; rate 63 g ai/ha,0
same,Pre-emerge Herbicidal Activity CORN,[10]; rate 250 g ai/ha,0
same,Pre-emerge Herbicidal Activity RICE,[11]; rate 63 g ai/ha,30
same,Pre-emerge Herbicidal Activity RICE,[11]; rate 250 g ai/ha,50
same,Post-emerge Herbicidal Activity ECHCG,[12]; 63 g ai/ha,0
same,Post-emerge Herbicidal Activity ECHCG,[12]; 250 g ai/ha,10
same,Post-emerge Herbicidal Activity SETVI,[13]; 63 g ai/ha,10
same,Post-emerge Herbicidal Activity SETVI,[13]; 250 g ai/ha,20
same,Post-emerge Herbicidal Activity IPOHE,[14]; 63 g ai/ha,75
same,Post-emerge Herbicidal Activity IPOHE,[14]; 250 g ai/ha,90
same,Post-emerge Herbicidal Activity SORHA,[15]; 63 g ai/ha,0
same,Post-emerge Herbicidal Activity SORHA,[15]; 250 g ai/ha,0
same,Post-emerge Herbicidal Activity CHEAL,[16]; 63 g ai/ha,100
same,Post-emerge Herbicidal Activity CHEAL,[16]; 250 g ai/ha,100
same,Post-emerge Herbicidal Activity DIGSA,[17]; 63 g ai/ha,0
same,Post-emerge Herbicidal Activity DIGSA,[17]; 250 g ai/ha,10
same,Post-emerge Herbicidal Activity AMARE,[18]; 63 g ai/ha,80
same,Post-emerge Herbicidal Activity AMARE,[18]; 250 g ai/ha,98
same,Post-emerge Herbicidal Activity CASOB,[19]; 63 g ai/ha,80
same,Post-emerge Herbicidal Activity CASOB,[19]; 250 g ai/ha,95
same,Post-emerge Herbicidal Activity ABUTH,[20]; 63 g ai/ha,100
same,Post-emerge Herbicidal Activity ABUTH,[20]; 250 g ai/ha,100
same,Post-emerge Herbicidal Activity CORN,[21]; 63 g ai/ha,10
same,Post-emerge Herbicidal Activity CORN,[21]; 250 g ai/ha,10
same,Post-emerge Herbicidal Activity RICE,[22]; 63 g ai/ha,15
same,Post-emerge Herbicidal Activity RICE,[22]; 250 g ai/ha,25
O=C(Nc1cc(Cl)ccc1N1C(=O)C2CCCCN2C1=O)c1ccc2ccccc2c1 (stereo not shown) [12-8],"Pre-emerge herbicidal activity, phytotoxicity rating AMARE",[1]; 63 g ai/ha,100
same,"Pre-emerge herbicidal activity, phytotoxicity rating AMARE",[1]; 250 g ai/ha,100
same,"Pre-emerge herbicidal activity, phytotoxicity rating ECHCG",[2]; 63 g ai/ha,0
same,"Pre-emerge herbicidal activity, phytotoxicity rating ECHCG",[2]; 250 g ai/ha,40
same,"Pre-emerge herbicidal activity, phytotoxicity rating SETVI",[3]; 63 g ai/ha,60
same,"Pre-emerge herbicidal activity, phytotoxicity rating SETVI",[3]; 250 g ai/ha,100
same,"Pre-emerge herbicidal activity, phytotoxicity rating IPOHE",[4]; 63 g ai/ha,0
same,"Pre-emerge herbicidal activity, phytotoxicity rating IPOHE",[4]; 250 g ai/ha,40
same,"Pre-emerge herbicidal activity, phytotoxicity rating SORHA",[5]; 63 g ai/ha,10
same,"Pre-emerge herbicidal activity, phytotoxicity rating SORHA",[5]; 250 g ai/ha,40
same,"Pre-emerge herbicidal activity, phytotoxicity rating CHEAL",[6]; 63 g ai/ha,100
same,"Pre-emerge herbicidal activity, phytotoxicity rating CHEAL",[6]; 250 g ai/ha,100
same,"Pre-emerge herbicidal activity, phytotoxicity rating DIGSA",[7]; 63 g ai/ha,50
same,"Pre-emerge herbicidal activity, phytotoxicity rating DIGSA",[7]; 250 g ai/ha,100
same,"Pre-emerge herbicidal activity, phytotoxicity rating CASOB",[8]; 63 g ai/ha,0
same,"Pre-emerge herbicidal activity, phytotoxicity rating CASOB",[8]; 250 g ai/ha,20
same,"Pre-emerge herbicidal activity, phytotoxicity rating ABUTH",[9]; 63 g ai/ha,0
same,"Pre-emerge herbicidal activity, phytotoxicity rating ABUTH",[9]; 250 g ai/ha,100
same,"Pre-emerge phytotoxicity rating, crop damage CORN",[10]; 63 g ai/ha,0
same,"Pre-emerge phytotoxicity rating, crop damage CORN",[10]; 250 g ai/ha,0
same,"Pre-emerge phytotoxicity rating, crop damage RICE",[11]; 63 g ai/ha,30
same,"Pre-emerge phytotoxicity rating, crop damage RICE",[11]; 250 g ai/ha,40
same,Post-emerge Herbicidal Activity ECHCG,[12]; 63 g ai/ha,10
same,Post-emerge Herbicidal Activity ECHCG,[12]; 250 g ai/ha,10
same,Post-emerge Herbicidal Activity SETVI,[13]; 63 g ai/ha,20
same,Post-emerge Herbicidal Activity SETVI,[13]; 250 g ai/ha,25
same,Post-emerge Herbicidal Activity IPOHE,[14]; 63 g ai/ha,90
same,Post-emerge Herbicidal Activity IPOHE,[14]; 250 g ai/ha,80
same,Post-emerge Herbicidal Activity SORHA,[15]; 63 g ai/ha,0
same,Post-emerge Herbicidal Activity SORHA,[15]; 250 g ai/ha,10
same,Post-emerge Herbicidal Activity CHEAL,[16]; 63 g ai/ha,95
same,Post-emerge Herbicidal Activity CHEAL,[16]; 250 g ai/ha,99
same,Post-emerge Herbicidal Activity DIGSA,[17]; 63 g ai/ha,10
same,Post-emerge Herbicidal Activity DIGSA,[17]; 250 g ai/ha,0
same,Post-emerge Herbicidal Activity AMARE,[18]; 63 g ai/ha,80
same,Post-emerge Herbicidal Activity AMARE,[18]; 250 g ai/ha,90
same,Post-emerge Herbicidal Activity CASOB,[19]; 63 g ai/ha,50
same,Post-emerge Herbicidal Activity CASOB,[19]; 250 g ai/ha,70
same,Post-emerge Herbicidal Activity ABUTH,[20]; 63 g ai/ha,100
same,Post-emerge Herbicidal Activity ABUTH,[20]; 250 g ai/ha,100
same,Post-emerge Herbicidal Activity CORN,[21]; 63 g ai/ha,5
same,Post-emerge Herbicidal Activity CORN,[21]; 250 g ai/ha,10
same,Post-emerge Herbicidal Activity RICE,[22]; 63 g ai/ha,20
same,Post-emerge Herbicidal Activity RICE,[22]; 250 g ai/ha,15
